# Publication PMC7340670, “Phase I study of TAS-115, a novel oral multi-kinase inhibitor, in patients with advanced solid tumors” (Investigational New Drugs, 2019)
# “Also recorded” adds a separate entry of the source.
# Columns and labels:
# [1] = tested on: patients with advanced solid tumors; test: Phase I study (JapicCTI-132333): safety, tolerability, DLT, MTD, RP2D; assay type: in vivo
# Description: This is an open-label, nonrandomized, dose-escalation study conducted at five sites in Japan. The study has three parts: a dose-escalation cohort using a traditional 3 + 3 design (part 1), a dosing schedule investigation cohort (part 2), and an expansion cohort to assess the safety at the MTD or lower doses among more patients (expansion part).
# For each dose level in part 1, three to six patients were enrolled. DLTs were evaluated during the first cycle. […] The study drug was orally administered under empty stomach conditions (1 h before or 2 h after a meal) with a cup of water. […] In the expansion part, ≤MTD was investigated for exposure and safety.
# All patients in parts 1 and 2 were required to be hospitalized for cycle 1 in order to observe AE. Patients continued to receive the study drug until disease progression or intolerable toxicity. […] The number of dose reductions was up to 2, and the minimum dose was 100 mg/day. […]
# [2] = tested on: bone lesions; test: Bone scintigraphy / bone scan index (BSI) response; assay type: in vivo, human
# Description: The secondary objectives were to investigate the PK profile, safety, tolerability, antitumor activity, and pharmacodynamic profile of TAS-115. AEs were graded according to the CTCAE Version 4.03. Response was assessed by radiologic imaging at 6 and 12 weeks from the first dose, and every 12 weeks thereafter. Antitumor effect was evaluated by investigators using Response Evaluation Criteria in Solid Tumors (RECIST) Version 1.1 [17]. If a patient had bone lesions, evaluation was performed using bone scintigraphy and bone scan index (BSI) were calculated by BONENAVI® software (FUJIFILM Toyama Chemical, Co., Ltd., Japan). BSI response was defined as ≥30% reduction in BSI [18]. An exploratory objective was to assess changes in protein levels of soluble MET (sMET), VEGF, and soluble VEGFR2 (sVEGFR2) in plasma, and HGF in serum as pharmacodynamic markers.
# [3] = tested on: patients; design: method as in data on file; conditions: tablet formulation, ref data on file, cited from earlier work
# [4] = Part 2 + Expansion part, 450 or 650 mg/day, 5-on/2-off (N = 61), patients (%)
# [5] = part 2 and expansion part (N = 61)
smiles,measurement,setting,value
CNC(=O)c1cc2c(Oc3ccc(NC(=S)NC(=O)Cc4ccccc4)cc3F)ccnc2cc1OC [TAS-115],"Treatment-related adverse events: Rash, ≥ Grade 3",[1]; [4],1 (1.6)
same,"Treatment-related adverse events: Thrombocytopenia, Any Grade",[1]; [4],19 (31.1)
same,"Treatment-related adverse events: Thrombocytopenia, ≥ Grade 3",[1]; [4],9 (14.8)
same,"Treatment-related adverse events: Vomiting, Any Grade",[1]; [4],19 (31.1)
same,"Treatment-related adverse events: Vomiting, ≥ Grade 3",[1]; [4],1 (1.6)
same,recommended phase II dose (RP2D),"[1]; SID, 5-on/2-off for 21 days per cycle, estimated",650 mg
same,treatment-related death,"[1]; any study part, during treatment or within 28 days of the last dose",No treatment-related death was observed
same,patients with TRAEs leading to dose interruption,[1]; cohorts 650 mg and 800 mg in part 1,All the patients
same,Serious AEs,[1]; expansion part,thirty one patients
same,Serious TRAEs,[1]; expansion part,"decreased appetite (three patients), nausea (two patients), interstitial lung disease, rash, enterocolitis, fatigue, thrombocytopenia, and pyrexia (one patient each)"
same,AEs resulted in death,"[1]; expansion part (650 mg), not considered related to TAS-115","hepatic failure, disease progression and respiratory failure occurred in one patient each"
same,Serious AEs,[1]; part 1,seven patients
same,Serious TRAEs,[1]; part 1,"tumor hemorrhage and decreased appetite (one patient, 650 mg each), thrombocytopenia (one patient, 800 mg)"
same,TRAEs that led to treatment discontinuation,[1]; part 1,"rash (one patient, 800 mg)"
same,Grade ≥3 TRAEs,[1]; part 1 (N = 21),13 patients
same,"Treatment-related adverse events: Any Events, Total","[1]; part 1, 200 mg SID (N=3)",3 (100.0) N (%)
same,"Treatment-related adverse events: Any Events, ≥ Grade 3","[1]; part 1, 200 mg SID (N=3)",1 (33.3) N (%)
same,"Treatment-related adverse events: Investigations, Total","[1]; part 1, 200 mg SID (N=3)",2 (66.7) N (%)
same,"Treatment-related adverse events: Investigations, ≥ Grade 3","[1]; part 1, 200 mg SID (N=3)",1 (33.3) N (%)
same,"Treatment-related adverse events: Any Events, Total","[1]; part 1, 300 mg SID (N=3)",3 (100.0) N (%)
same,"Treatment-related adverse events: Any Events, ≥ Grade 3","[1]; part 1, 300 mg SID (N=3)",2 (66.7) N (%)
same,"Treatment-related adverse events: Investigations, Total","[1]; part 1, 300 mg SID (N=3)",2 (66.7) N (%)
same,"Treatment-related adverse events: Investigations, ≥ Grade 3","[1]; part 1, 300 mg SID (N=3)",2 (66.7) N (%)
same,"Treatment-related adverse events: Any Events, Total","[1]; part 1, 450 mg SID (N=3)",3 (100.0) N (%)
same,"Treatment-related adverse events: Any Events, ≥ Grade 3","[1]; part 1, 450 mg SID (N=3)",2 (66.7) N (%)
same,"Treatment-related adverse events: Investigations, Total","[1]; part 1, 450 mg SID (N=3)",3 (100.0) N (%)
same,"Treatment-related adverse events: Investigations, ≥ Grade 3","[1]; part 1, 450 mg SID (N=3)",2 (66.7) N (%)
same,treatment interruption during cycle 1,"[1]; part 1, 650 mg SID",all patients who received 650 mg SID required treatment interruption; also recorded: all patients who received 650 mg SID had treatment interruption
same,"Treatment-related adverse events: Any Events, Total","[1]; part 1, 650 mg SID (N=6)",6 (100.0) N (%)
same,"Treatment-related adverse events: Any Events, ≥ Grade 3","[1]; part 1, 650 mg SID (N=6)",5 (83.3) N (%)
same,"Treatment-related adverse events: Investigations, Total","[1]; part 1, 650 mg SID (N=6)",6 (100.0) N (%)
same,"Treatment-related adverse events: Investigations, ≥ Grade 3","[1]; part 1, 650 mg SID (N=6)",3 (50.0) N (%)
same,"Treatment-related adverse events: Any Events, Total","[1]; part 1, 800 mg SID (N=6)",6 (100.0) N (%)
same,"Treatment-related adverse events: Any Events, ≥ Grade 3","[1]; part 1, 800 mg SID (N=6)",3 (50.0) N (%)
same,"Treatment-related adverse events: Investigations, Total","[1]; part 1, 800 mg SID (N=6)",4 (66.7) N (%)
same,"Treatment-related adverse events: Investigations, ≥ Grade 3","[1]; part 1, 800 mg SID (N=6)",1 (16.7) N (%)
same,dose dependence of TRAEs,"[1]; part 1, 200–800 mg SID",no dose-dependent increase in the incidence and grade of TRAEs was observed
same,DLTs overall,"[1]; part 1, 200–800 mg SID, 21 patients",Three dose-limiting toxicities; also recorded: three DLTs
same,maximum tolerated dose (MTD),"[1]; part 1, SID, 21 days per cycle, granule formulation",650 mg
same,DLTs at 650 mg SID,"[1]; part 1, cycle 1, N = 6",grade 3 rash in one patient
same,DLTs at 800 mg SID,"[1]; part 1, cycle 1, N = 6",grade 3 thrombocytopenia with bleeding and grade 3 rash each in one patient
same,Serious AEs,[1]; part 2,two patients
same,Serious TRAEs,[1]; part 2,peritonitis (one patient)
same,treatment interruption in cycle 1,"[1]; part 2, 650 mg SID 5-on/2-off",no patients required treatment interruption
same,DLTs at 650 mg SID 5-on/2-off,"[1]; part 2, cycle 1, six patients",No DLTs were observed; also recorded: no DLTs were reported
same,TRAEs that led to treatment discontinuation,[1]; part 2 and expansion part,"rash (two patients, 650 mg), pyrexia, peritonitis and neutropenia (one patient each, 650 mg)"
same,"TRAE anemia, any grade",[1]; [5],34.4%
same,"TRAE decreased appetite, any grade",[1]; [5],42.6%
same,"TRAE fatigue, any grade",[1]; [5],44.3%
same,"TRAE hypophosphatemia, any grade",[1]; [5],32.8%
same,"TRAE increased ALT, any grade",[1]; [5],37.7%
same,"TRAE increased AST, any grade",[1]; [5],50.8%
same,"TRAE nausea, any grade",[1]; [5],42.6%
same,"TRAE neutropenia, any grade",[1]; [5],34.4%
same,"TRAE thrombocytopenia, any grade",[1]; [5],31.1%
same,"TRAE vomiting, any grade",[1]; [5],31.1%
same,grade ≥3 TRAE anemia,[1]; [5],14.8%
same,grade ≥3 TRAE hypophosphatemia,[1]; [5],21.3%
same,grade ≥3 TRAE leukocytopenia,[1]; [5],11.5%
same,grade ≥3 TRAE neutropenia,[1]; [5],24.6%
same,grade ≥3 TRAE thrombocytopenia,[1]; [5],14.8%
same,frequency of TRAEs leading to dose interruption,[1]; part 2 and the expansion part,approximately 77%
same,tolerability,"[1]; patients with advanced solid tumors, up to 650 mg 5-on/2-off",generally well tolerated
same,antitumor effect in a patient with CRPC with multiple bone metastases,[2]; 650 mg 5-on/2-off,notable improvement was observed in the bone scan
same,antitumor effect in a patient with epithelioid sarcoma with multiple metastases,"[2]; 650 mg 5-on/2-off, 6 weeks after the first administration",marked decrease of hot spots on bone scans and reduction in fluorodesoxyglucose uptake
same,BSI response rate (≥30% reduction in BSI),"[2]; patients with bone lesions, 14 of 25",56.0%
same,absorption,[3],saturated between 100 and 1200 mg
same,dose-limiting toxicities (DLTs),"[3]; ten patients, 100, 200, 400, 800, 1200 mg SID and 400 mg BID",no dose-limiting toxicities (DLTs) were observed
